From US11401271B2, “Fused heterocyclic compound, pyrazole-ring-containing fused heterocyclic compound, agricultural composition containing thereof, and method of using the composition” (SOUTH CHINA AGRICULTURAL UNIVERSITY, priority 2017, dated 2022)
Read-outs that look alike come from different tables or passages of the source.

Assays:
Experiment in all cases: whole plant or invertebrate
Format in all cases: in vivo
[1] = test system: Solenopsis invicta; conditions: water test tube poison-feeding; for mortality at 100 ppm: Solenopsis invicta
Summary of the method: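 Fire ants fed compound by water test-tube poison-feeding at 100 ppm in aqueous 0.05% Tween-80/5% honey (from 10 g/L DMSO stock), kept at 25 °C. Live and dead ants counted at 24 and 72 h; mortality (%) calculated relative to live ants in the untreated control.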

[2] = test system: Aphis craccivora; conditions: for mortality at 500 ppm: Aphis craccivora, 24 h, read-out: Aphis craccivora Mortality (%) 500 ppm; for Aphis craccivora Mortality (%): immersion 5 seconds, counted after 24 hours
Summary of the method: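 Wingless adults feeding on bean sprouts were dipped with the sprouts for 5 s in 500 ppm compound in aqueous 0.05% Tween-80, air-dried, then held at 23° C. Dead aphids counted after 24 h, triplicate, with 0.05% Tween-80 as control. Mortality (%) = (control live − treated live)/control live × 100.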

[3] = test system: Spodoptera exigua; conditions: for mortality at 500 ppm: Spodoptera exigua, 24 h, read-out: Spodoptera exigua Mortality (%) 500 ppm
Summary of the method: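 Cabbage leaf discs dipped 5 s in 500 ppm compound (0.05% Tween-80 aqueous), air-dried, fed to about 35 2nd-instar larvae at 28° C, three replicates. Deaths counted at 24 h; mortality corrected against Tween-80 control.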

[4] = test system: Plutella xylostella; conditions: for mortality at 500 ppm: Plutella xylostella, read-out: Plutella xylostella Mortality (%) 500 ppm
Summary of the method: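 Cabbage leaf discs dipped 5 s in compound at 500 ppm (0.05% Tween-80 aqueous), air-dried, fed to about 35 2nd-instar larvae at 28° C., triplicate. Dead larvae counted after 24 h; mortality (%) corrected against Tween-80 control.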

[5] = 24 h, read-out: Solenopsis invicta Mortality (%) 100 ppm 24 h, 100 ppm, 24 h
[6] = 72 h, read-out: Solenopsis invicta Mortality (%) 100 ppm 72 h, 100 ppm, 72 h
[7] = 500 ppm, 2nd-instar larvae, leaf immersion feeding

Row | SMILES | mortality at 100 ppm [1, 5] [%] | mortality at 100 ppm [1, 6] [%] | mortality at 500 ppm [2] [%] | mortality at 500 ppm [3] [%] | mortality at 500 ppm [4] [%] | Solenopsis invicta Mortality (%) 24 h ([1]; 100 ppm, 24 h) [%] | Solenopsis invicta Mortality (%) 72 h ([1]; 100 ppm, 72 h) [%] | Aphis craccivora Mortality (%) ([2]; 500 ppm, wingless adults) | Spodoptera exigua Mortality (%) [3, 7] [%] | Plutella xylostella Mortality (%) [4, 7] [%] | also measured
1 | CSc1nn2c(c1C#N)N(S(C)(=O)=O)C(F)(C(F)(F)F)c1ccccc1-2 (stereo not shown) [Compound A33] | 24 | 100 | 100 | 100 | 100 |  |  |  |  |  | 
2 | N#Cc1nn2c(c1[S+]([O-])C(F)(F)F)NC(Cl)c1cc(C(F)(F)F)cc(Cl)c1-2 (stereo not drawn) [d-90] |  |  |  |  |  | 16 | 85 | 90 | 80 | 82 | 
3 | CC(=O)c1nn2c(c1[S+](C)[O-])NC(CBr)(CC#N)c1cc(C(F)(F)F)cc(Cl)c1-2 (stereo not shown) [Compound C41] | 19 | 90 | 100 | 94 | 89 |  |  |  |  |  | 
4 | COC(=O)CC1(C(=O)OC)Nc2c([S+]([O-])C(F)(F)F)c(C#N)nn2-c2cc(OC(F)(F)F)cc(Cl)c21 (stereo not shown) [c-224] |  |  |  |  |  | 25 | 100 | 100 | 95 | 99 | 
5 | N#Cc1nn2c(c1[S+]([O-])C(F)(F)F)NC(CC(=O)C(F)(F)F)(C(=O)C(F)(F)F)c1c(Cl)cncc1-2 (stereo not shown) [b-25] |  |  |  |  |  | 26 | 100 | 100 | 100 | 100 | 
6 | CC(=O)CC1(C(=O)C(F)(F)F)Nc2c([S+]([O-])C(F)(F)F)c(C#N)nn2-c2ncc(C(F)(F)F)cc21 (stereo not shown) [a-26] |  |  |  |  |  |  |  |  |  |  | Solenopsis invicta Mortality (%) 100 ppm 24 h ([1]; 100 ppm, 24 h): 34%; Solenopsis invicta Mortality (%) 100 ppm 72 h ([1]; 100 ppm, 72 h): 100%; Aphis craccivora Mortality (%) 500 ppm ([2]; 500 ppm, wingless adults, impregnation method, 24 hours): 100%; Spodoptera exigua Mortality (%) 500 ppm ([3]; 500 ppm, 2nd-instar larvae, leaf immersion feeding, 24 hours): 100%; Plutella xylostella Mortality (%) 500 ppm [4, 7]: 100%
7 | CN1CCN(C(=O)C2(CC#N)Nc3c([S+]([O-])C(F)(F)F)c(C#N)nn3-c3c(Cl)cc(C(F)(F)F)cc32)CC1 (stereo not shown) [Compound C34] | 40 | 100 | 100 | 100 | 100 |  |  |  |  |  | 
8 | C=CC1Nc2c([S+]([O-])C(F)(F)F)c(C#N)nn2-c2c(Cl)cc(C(F)(F)F)cc21 (stereo not shown) [Compound C16] | 23 | 89 | 99 | 95 | 100 |  |  |  |  |  | 
9 | N#Cc1nn2c(c1[S+]([O-])C(F)(F)F)NC(Cc1ccccc1)(C(=O)C(F)(F)F)c1cc(C(F)(F)F)cc(Cl)c1-2 (stereo not drawn) [d-52] |  |  |  |  |  | 24 | 100 | 100 | 100 | 100 | 
10 | COC(=O)CC1(C(=O)OC)Nc2c(C#N)c(C(F)(F)F)nn2-c2cncc(Cl)c21 (stereo not shown) [b-136] |  |  |  |  |  | 20 | 97 | 100 | 100 | 100 | 
11 | C=CC1(C(F)(F)F)Nc2c(-c3ccccc3C(F)(F)F)c(C#N)nn2-c2c(Cl)cc(C(F)(F)F)cc21 (stereo not shown) [Compound C11] | 46 | 100 | 100 | 100 | 100 |  |  |  |  |  | 
